For experiment [1], the target named is T1, Apoptotic protease-activating factor 1 (Homo sapiens, UniProt O14727).
T1 sequence (O14727 whole entry): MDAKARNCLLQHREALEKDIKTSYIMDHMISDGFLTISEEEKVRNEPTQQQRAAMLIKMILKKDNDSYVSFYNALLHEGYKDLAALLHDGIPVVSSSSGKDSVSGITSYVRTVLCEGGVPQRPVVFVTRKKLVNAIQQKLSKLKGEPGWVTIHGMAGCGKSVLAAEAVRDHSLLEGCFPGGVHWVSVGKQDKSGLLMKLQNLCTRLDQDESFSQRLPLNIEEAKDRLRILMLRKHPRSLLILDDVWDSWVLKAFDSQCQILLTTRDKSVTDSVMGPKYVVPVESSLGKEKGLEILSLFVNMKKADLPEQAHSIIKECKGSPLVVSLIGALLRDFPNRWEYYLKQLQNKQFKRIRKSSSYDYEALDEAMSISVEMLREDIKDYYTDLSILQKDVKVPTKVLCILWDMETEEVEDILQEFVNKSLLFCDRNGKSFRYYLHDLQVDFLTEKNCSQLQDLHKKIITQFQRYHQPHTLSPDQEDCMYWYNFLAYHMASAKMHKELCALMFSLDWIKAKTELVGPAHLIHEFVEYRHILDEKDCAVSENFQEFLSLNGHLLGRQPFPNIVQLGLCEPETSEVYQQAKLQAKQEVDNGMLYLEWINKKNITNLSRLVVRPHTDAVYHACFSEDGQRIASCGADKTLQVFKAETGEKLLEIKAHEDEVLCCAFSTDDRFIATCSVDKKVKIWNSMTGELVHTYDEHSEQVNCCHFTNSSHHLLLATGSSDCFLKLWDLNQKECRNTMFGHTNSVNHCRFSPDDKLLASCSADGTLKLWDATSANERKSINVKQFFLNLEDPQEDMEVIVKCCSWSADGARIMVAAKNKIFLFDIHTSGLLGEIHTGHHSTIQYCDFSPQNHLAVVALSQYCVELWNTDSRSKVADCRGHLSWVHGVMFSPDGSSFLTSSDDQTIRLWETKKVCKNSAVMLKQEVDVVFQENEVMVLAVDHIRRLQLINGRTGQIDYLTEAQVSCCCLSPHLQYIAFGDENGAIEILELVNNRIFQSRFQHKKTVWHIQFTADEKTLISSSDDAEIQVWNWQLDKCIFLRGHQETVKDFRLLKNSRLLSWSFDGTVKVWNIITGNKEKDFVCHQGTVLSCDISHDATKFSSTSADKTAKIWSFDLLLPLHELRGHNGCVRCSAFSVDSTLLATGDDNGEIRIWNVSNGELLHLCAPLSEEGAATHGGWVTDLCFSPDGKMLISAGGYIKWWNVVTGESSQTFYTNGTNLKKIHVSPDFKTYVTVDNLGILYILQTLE
The experiment can be described thus: SAR analysis of small molecule Activators of Apaf-1 in a Fluorescent assay - set 2. Type of experiment: functional. The conditions noted are these: read-out: EC50_Mean.

Experiment [2] can be described thus: SAR analysis of small molecule activators of Apaf-1 using a LZ-Caspase-9/Caspase-3 Fluorescent Selectivity assay - Set 2. It is filed as functional. To be noted: read-out: EC50_Mean.
Experiment [3] has as its target T2, High affinity choline transporter 1 (Homo sapiens, UniProt Q9GZV3).
T2 sequence (Q9GZV3 whole entry): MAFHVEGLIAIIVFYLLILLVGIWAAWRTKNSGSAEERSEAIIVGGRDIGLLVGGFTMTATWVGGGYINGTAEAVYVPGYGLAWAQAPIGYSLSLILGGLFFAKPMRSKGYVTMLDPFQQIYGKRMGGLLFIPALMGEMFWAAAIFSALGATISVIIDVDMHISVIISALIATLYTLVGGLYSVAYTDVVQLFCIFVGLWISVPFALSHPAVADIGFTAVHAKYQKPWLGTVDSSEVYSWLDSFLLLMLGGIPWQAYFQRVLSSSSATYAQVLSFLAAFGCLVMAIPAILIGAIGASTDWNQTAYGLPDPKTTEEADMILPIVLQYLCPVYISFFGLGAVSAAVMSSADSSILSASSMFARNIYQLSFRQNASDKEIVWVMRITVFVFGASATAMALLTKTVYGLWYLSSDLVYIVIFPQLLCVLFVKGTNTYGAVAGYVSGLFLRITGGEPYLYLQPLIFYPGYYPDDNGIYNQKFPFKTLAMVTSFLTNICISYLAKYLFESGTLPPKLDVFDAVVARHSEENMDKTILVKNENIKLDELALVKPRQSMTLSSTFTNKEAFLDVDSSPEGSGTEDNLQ
The experiment can be described thus: CHT inhibitors, dose response, cell-based, 5-point CRC, membrane potential dye (AID 504840). Type of experiment: functional.

Experiment [4] concerns the target T3, Rac GTPase-activating protein 1 (Homo sapiens, UniProt Q9H0H5).
T3 sequence (Q9H0H5 whole entry): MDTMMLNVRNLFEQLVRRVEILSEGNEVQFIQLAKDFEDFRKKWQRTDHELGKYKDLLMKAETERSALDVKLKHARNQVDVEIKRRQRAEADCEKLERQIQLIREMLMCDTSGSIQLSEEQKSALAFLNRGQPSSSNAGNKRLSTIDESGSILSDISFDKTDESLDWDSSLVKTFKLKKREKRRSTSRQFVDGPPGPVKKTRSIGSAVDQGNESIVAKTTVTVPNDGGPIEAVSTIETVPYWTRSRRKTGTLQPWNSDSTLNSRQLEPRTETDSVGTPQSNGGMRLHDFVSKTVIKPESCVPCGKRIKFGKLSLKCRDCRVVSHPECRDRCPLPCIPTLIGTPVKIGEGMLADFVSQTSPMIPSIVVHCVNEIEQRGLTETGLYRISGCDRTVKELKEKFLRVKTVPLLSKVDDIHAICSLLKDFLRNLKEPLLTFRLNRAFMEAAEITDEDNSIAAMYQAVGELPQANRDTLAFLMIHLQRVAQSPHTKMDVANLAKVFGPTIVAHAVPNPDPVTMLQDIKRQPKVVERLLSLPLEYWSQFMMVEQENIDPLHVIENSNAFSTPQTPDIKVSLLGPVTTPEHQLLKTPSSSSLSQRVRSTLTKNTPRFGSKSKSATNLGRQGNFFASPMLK
The experiment can be described thus: MgcRacGAP GTPase-activating activity inhibitors, confirmation, biochemical, ADP Hunter fluorescence, primary and confirmatory (AID 624330). Type of experiment: functional.

Experiment [5] in a line: HeLa cell cytotoxicity, dose response, cytotoxicity control for MgcRacGAP inhibitor project (AID 624300). It is filed as functional.
Another experiment concerns Vero. The experiment can be described thus: West Nile virus antiviral activity, cell-based, CPE readout (AID 1621). The conditions noted are these: Chlorocebus sabaeus. Type of experiment: functional.
For experiment [6], the target named is T2, High affinity choline transporter 1. Put plainly: CHT inhibitors, dose response, cell-based, 10-point CRC, membrane potential dye (AID 588401).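 Note: membrane potential dye fluorescence of choline-evoked depolarization via CHT.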 It is filed as functional.
In experiment [7] the target is T4, DNA dC->dU-editing enzyme APOBEC-3G (Homo sapiens, UniProt Q9HC16). Put plainly: APOBEC3G deaminase inhibitors, SAR follow-up, biochemical, fluorescence, single-stranded DNA substrate (AID 602136). To be noted: read-out: IC50_Mean. It is filed as functional.
The target of experiment [8] is T5, DNA dC->dU-editing enzyme APOBEC-3A (Homo sapiens, UniProt P31941). The experiment can be described thus: SAR analysis of small molecule inhibitors of APOBEC3A DNA Deaminase via a fluorescence-based single-stranded DNA deaminase assay. It is filed as functional. To be noted: read-out: IC50_Mean.
For a further experiment, the target named is Large T antigen (Simian virus 40, UniProt P03070). Type of experiment: functional, Betapolyomavirus macacae.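 Note: Confirmatory-stage PubChem screen for compounds that inhibit SV40 T antigen.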
Experiment [9] addresses T5, DNA dC->dU-editing enzyme APOBEC-3A. Put plainly: APOBEC3A DNA deaminase inhibitors, dose response, biochemical (AID 504722). It is filed as functional.
Experiment [10] addresses T4, DNA dC->dU-editing enzyme APOBEC-3G. The experiment can be described thus: SAR analysis of small molecule inhibitors of APOBEC3G DNA Deaminase via a fluorescence-based single-stranded DNA deaminase assay - Set 2. Type of experiment: functional. The conditions noted are these: read-out: IC50_Mean.
Experiment [11] shares this target. Put plainly: Dose Response confirmation of small molecule APOBEC3G DNA Deaminase Inhibitors via a fluorescence-based single-stranded DNA deaminase assay. [Related pubchem assays (depositor defined):AID493012, AID493028]. It is filed as functional.
Experiment [12] addresses T5, DNA dC->dU-editing enzyme APOBEC-3A. The experiment can be described thus: SAR analysis of small molecule inhibitors of APOBEC3A DNA Deaminase via a fluorescence-based single-stranded DNA deaminase assay - Set 2. To be noted: read-out: IC50_Mean. It is filed as functional.
Experiment [13] deals with Serine/threonine-protein kinase TAO1 (Homo sapiens, UniProt Q7L7X3). It is filed as functional.
Experiment [14] deals with Calcium/calmodulin-dependent protein kinase type II subunit beta (Homo sapiens, UniProt Q13554). Type of experiment: functional.
Experiment [15] addresses Casein kinase I isoform delta (Homo sapiens, UniProt P48730). Type of experiment: functional.
For experiment [16], the target named is Serine/threonine-protein kinase PAK 1 (Homo sapiens, UniProt Q13153). Type of experiment: functional.
Experiment [17] addresses Casein kinase I isoform alpha (Homo sapiens, UniProt P48729). It is filed as functional.
For experiment [18], the target named is Protein kinase C delta type (Homo sapiens, UniProt Q05655). Type of experiment: functional.
The target of experiment [19] is Calcium/calmodulin-dependent protein kinase type II subunit gamma (Homo sapiens, UniProt Q13555). Type of experiment: functional.
Experiment [20] addresses Calcium/calmodulin-dependent protein kinase type II subunit delta (Homo sapiens, UniProt Q13557). It is filed as functional.

We go through four molecules from ChEMBL document CHEMBL1201862, “PubChem BioAssay data set” (2004).

Calls of active or inactive are those of the source.

T5 sequence (P31941 whole entry): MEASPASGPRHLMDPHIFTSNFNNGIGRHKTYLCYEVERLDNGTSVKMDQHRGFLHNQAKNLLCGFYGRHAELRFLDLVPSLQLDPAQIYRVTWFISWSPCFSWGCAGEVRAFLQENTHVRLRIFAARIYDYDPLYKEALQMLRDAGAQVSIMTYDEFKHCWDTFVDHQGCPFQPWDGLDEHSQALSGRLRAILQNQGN
T4 sequence (Q9HC16 whole entry): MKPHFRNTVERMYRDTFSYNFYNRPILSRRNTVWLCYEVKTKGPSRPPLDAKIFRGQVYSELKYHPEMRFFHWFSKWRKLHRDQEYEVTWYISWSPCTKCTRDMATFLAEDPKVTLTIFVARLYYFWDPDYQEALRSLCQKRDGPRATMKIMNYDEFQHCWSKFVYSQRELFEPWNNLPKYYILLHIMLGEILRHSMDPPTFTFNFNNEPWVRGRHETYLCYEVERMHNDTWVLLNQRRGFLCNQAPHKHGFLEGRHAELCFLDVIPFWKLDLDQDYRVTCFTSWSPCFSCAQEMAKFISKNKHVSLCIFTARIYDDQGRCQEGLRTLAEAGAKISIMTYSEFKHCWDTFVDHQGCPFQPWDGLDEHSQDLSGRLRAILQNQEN
Chain of Protein kinase C delta type (Q05655 whole entry): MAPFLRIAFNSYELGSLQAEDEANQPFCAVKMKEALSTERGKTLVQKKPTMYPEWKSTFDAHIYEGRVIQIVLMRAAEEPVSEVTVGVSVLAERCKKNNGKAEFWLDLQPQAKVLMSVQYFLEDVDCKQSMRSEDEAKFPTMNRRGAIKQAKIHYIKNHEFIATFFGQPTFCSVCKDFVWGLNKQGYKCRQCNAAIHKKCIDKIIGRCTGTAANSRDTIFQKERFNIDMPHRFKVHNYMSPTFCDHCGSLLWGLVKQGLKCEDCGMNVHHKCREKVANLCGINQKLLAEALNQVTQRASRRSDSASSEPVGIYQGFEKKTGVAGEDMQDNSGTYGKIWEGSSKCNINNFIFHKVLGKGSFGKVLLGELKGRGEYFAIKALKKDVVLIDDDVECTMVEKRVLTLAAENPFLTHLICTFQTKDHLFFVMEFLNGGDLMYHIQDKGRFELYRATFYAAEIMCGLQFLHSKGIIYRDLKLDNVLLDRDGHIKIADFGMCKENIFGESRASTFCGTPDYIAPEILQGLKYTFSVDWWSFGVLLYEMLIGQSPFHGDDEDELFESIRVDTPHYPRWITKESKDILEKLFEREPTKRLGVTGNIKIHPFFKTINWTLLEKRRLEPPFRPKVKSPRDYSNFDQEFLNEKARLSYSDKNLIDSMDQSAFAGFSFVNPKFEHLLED
Chain of Serine/threonine-protein kinase PAK 1 (Q13153 whole entry, canonical isoform): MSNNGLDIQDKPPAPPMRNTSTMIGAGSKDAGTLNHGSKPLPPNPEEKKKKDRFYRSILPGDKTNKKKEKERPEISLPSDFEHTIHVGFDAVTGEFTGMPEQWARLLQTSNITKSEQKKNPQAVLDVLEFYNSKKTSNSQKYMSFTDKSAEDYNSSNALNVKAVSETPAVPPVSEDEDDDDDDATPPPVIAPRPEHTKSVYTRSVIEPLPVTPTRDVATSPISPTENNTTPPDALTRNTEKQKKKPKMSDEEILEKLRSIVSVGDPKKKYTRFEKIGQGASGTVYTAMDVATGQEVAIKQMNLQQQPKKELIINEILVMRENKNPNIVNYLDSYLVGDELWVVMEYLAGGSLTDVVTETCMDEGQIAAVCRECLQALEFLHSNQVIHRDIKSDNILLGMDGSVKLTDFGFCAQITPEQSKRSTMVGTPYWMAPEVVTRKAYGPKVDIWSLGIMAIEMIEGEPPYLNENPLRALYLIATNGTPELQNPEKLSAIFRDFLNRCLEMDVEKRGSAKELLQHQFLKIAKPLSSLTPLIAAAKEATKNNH
Chain of Casein kinase I isoform alpha (P48729 whole entry, canonical isoform): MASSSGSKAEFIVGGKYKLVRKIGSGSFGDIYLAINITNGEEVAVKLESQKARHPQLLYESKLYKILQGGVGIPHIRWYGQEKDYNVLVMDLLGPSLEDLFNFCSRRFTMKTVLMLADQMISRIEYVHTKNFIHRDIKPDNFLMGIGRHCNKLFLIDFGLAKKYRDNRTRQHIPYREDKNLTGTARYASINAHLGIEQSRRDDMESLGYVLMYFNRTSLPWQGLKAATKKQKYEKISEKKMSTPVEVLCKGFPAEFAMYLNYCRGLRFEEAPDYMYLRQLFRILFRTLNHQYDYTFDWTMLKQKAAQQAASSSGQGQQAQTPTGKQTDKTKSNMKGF
Chain of Calcium/calmodulin-dependent protein kinase type II subunit delta (Q13557 whole entry): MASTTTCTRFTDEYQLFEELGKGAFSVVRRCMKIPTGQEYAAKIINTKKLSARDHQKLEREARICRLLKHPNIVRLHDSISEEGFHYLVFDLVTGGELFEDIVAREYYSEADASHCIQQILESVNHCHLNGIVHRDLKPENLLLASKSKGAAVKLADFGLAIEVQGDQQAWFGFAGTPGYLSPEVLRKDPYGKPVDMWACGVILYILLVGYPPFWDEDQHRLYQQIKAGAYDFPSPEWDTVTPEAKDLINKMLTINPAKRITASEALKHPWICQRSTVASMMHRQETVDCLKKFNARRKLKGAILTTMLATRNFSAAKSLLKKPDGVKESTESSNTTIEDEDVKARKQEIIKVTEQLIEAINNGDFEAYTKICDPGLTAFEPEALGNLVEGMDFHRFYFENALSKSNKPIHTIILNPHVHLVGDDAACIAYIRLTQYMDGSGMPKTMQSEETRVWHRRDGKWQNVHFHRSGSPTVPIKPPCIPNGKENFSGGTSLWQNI
Chain of Calcium/calmodulin-dependent protein kinase type II subunit gamma (Q13555 whole entry): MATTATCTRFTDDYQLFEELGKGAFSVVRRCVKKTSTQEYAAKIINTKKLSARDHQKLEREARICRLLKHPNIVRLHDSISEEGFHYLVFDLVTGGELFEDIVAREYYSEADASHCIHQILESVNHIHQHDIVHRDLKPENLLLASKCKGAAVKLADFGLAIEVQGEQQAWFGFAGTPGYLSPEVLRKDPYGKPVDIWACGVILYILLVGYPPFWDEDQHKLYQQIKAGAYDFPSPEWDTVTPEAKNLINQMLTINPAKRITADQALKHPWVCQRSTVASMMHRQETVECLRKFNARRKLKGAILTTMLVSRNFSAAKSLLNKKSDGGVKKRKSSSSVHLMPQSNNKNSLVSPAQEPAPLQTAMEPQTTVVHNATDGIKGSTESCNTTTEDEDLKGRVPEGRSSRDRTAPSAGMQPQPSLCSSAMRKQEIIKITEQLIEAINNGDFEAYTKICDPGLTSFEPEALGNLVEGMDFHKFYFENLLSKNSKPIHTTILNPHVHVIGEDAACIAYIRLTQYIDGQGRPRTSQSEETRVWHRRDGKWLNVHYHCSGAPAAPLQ
Chain of Calcium/calmodulin-dependent protein kinase type II subunit beta (Q13554 whole entry, canonical isoform): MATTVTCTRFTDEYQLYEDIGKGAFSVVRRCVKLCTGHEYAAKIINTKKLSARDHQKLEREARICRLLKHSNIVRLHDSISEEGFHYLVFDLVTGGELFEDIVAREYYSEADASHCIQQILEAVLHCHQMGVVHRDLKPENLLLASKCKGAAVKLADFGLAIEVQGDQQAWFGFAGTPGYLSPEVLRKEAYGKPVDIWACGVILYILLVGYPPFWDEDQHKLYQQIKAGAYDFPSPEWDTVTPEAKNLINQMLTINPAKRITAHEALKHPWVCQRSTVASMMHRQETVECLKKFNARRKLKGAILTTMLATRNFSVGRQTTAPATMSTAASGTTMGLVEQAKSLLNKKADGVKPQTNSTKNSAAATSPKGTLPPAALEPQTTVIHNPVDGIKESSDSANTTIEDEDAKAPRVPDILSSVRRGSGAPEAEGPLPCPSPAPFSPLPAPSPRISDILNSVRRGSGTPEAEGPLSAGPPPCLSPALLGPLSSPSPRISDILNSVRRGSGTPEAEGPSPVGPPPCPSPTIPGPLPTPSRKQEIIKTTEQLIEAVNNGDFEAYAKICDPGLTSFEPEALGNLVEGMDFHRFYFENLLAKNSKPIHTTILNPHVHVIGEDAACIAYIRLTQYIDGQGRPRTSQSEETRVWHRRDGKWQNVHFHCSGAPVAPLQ
Chain of Serine/threonine-protein kinase TAO1 (Q7L7X3 whole entry): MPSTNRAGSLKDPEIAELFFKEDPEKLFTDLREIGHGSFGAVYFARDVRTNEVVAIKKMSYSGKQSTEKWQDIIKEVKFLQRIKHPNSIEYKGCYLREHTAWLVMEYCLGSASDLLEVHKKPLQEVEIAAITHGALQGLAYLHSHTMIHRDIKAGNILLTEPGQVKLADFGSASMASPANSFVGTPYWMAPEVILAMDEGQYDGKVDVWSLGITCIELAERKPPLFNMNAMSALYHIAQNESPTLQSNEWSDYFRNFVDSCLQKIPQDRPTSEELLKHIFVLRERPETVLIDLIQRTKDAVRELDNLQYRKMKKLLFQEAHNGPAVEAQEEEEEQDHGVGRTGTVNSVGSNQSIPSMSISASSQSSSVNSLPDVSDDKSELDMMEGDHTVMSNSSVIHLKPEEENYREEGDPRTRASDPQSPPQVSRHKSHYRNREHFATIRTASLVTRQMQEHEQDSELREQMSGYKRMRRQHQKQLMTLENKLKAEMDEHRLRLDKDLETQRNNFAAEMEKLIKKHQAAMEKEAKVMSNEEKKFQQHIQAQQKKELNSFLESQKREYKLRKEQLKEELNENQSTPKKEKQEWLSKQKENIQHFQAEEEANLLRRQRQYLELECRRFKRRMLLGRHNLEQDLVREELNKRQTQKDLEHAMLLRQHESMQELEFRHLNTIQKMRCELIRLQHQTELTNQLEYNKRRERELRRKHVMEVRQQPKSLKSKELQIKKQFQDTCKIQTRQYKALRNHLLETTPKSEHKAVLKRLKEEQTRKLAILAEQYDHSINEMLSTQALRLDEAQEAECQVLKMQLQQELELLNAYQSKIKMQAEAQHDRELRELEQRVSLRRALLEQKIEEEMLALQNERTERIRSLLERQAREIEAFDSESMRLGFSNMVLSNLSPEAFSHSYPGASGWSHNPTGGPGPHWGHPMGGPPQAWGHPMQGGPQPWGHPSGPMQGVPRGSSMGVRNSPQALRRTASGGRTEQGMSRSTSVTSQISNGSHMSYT

`COc1ccccc1C1=NOC(C(=O)O)C1` (configuration not stated): the EC50 in experiment [1] and in experiment [2] was > 100 µM (inactive) in each case.
The term CC50 denotes the concentration at which the toxic effect on the cells reaches its halfway point. Take `CCN(CC)CCCC(C)NC(=O)c1c(NC(=O)c2ccccc2)sc2c1CCCC2` (configuration not stated): the IC50 in experiment [3] is 2.41 µM (active); in experiment [4], 144 µM (active); in the experiment with Vero, 21.4 µM (active); in [6], 3.36 µM (active). Besides, in [5], the CC50 was 100 µM (active).
With `CCCCCn1c(=O)c2ccccc2n2c(S)nnc12`, the IC50 in [7] is 1.2 µM (active); in experiment [8], > 99 µM (inactive); on Large T antigen it was 16.8 µM (active); in [9] it was > 100 µM (inactive); in [10], 1.6 µM (active); in experiment [11] it was 1.47 µM (active). In [12], the IC50 was > 99 µM (inactive).
Broadly, the Ki is the dissociation constant of the complex between target and ligand, obtained from inhibition or displacement. With `CCCCOc1ccccc1CCc1cccc2nc(N)nc(N)c12`, the Ki in [13] is 10 µM (active); in [14], 2.51 µM (active); in experiment [15], 3.98 µM (active); in experiment [16], 3.16 µM (active); in [17], 1.58 µM (active); in experiment [18], 5.01 µM (active). Also, the Ki in [19] is 3.16 µM (active); in experiment [20] it was 5.01 µM (active).
